In patent US11111242B2, “Pyrrolo[2,3-d]pyrimidinyl, pyrrolo[2,3-b]pyrazinyl and pyrrolo[2,3-d]pyridinyl acrylamides” (Pfizer Inc., priority 2013, dated 2021):

tested on: IL-15 induced P-STAT5 in human PBMC (total lymphocytes); experiment: PBMC IL-15 Induced P-STAT5; type: cell-based; details: Homo sapiens, PBMC, IL-15 stimulated, read-out: PBMC IL15-pSTAT5 IC50
Method: PBMC IL-15 Induced P-STAT5
Frozen human PBMC (200-250 million cells/vial) was thawed at 37° C. The cells were transferred to 10 mL warm medium in a 50-mL conical tube, and centrifuged at 1,200 RPM at room temperature for 5 min. The supernatant was aspirated. […] After adding 47 ml D-PBS (37° C.) to PBMC/FBS suspension, centrifuging at 1,200 RPM at room temperature for 5 min, and aspirating the supernatant, the cells were resuspended in 20 mL warm RPMI medium. Ninety μL of cell suspension were pipetted per well in a 96-well, deep-well, V-bottom plate, and the plate was incubated at 37° C. for 30 min. […] After adding 0.8 mL staining buffer per well, the plates were centrifuged at 1,200 RPM (Beckman GS-6R or Sorvall Legend) at room temperature for 5 min, and again the supernatant was aspirated using a 8-channel or 12-channel manifold. The plate was vortexed, and 0.35 mL 90% methanol/10% H2O (−20° C.) was added per well, and the plate incubated on ice for 20 min. After again adding 0.8 mL staining buffer per well, the plates were centrifuged at 1,200 RPM (Beckman GS-6R or Sorvall Legend) at room temperature for 5 min, and again the supernatant was aspirated using a 8-channel or 12-channel manifold, and then 0.8 mL Staining buffer was added per well. After once again adding 0.8 mL staining buffer per well, the plates were centrifuged at 1,200 RPM (Beckman GS-6R or Sorvall Legend) at room temperature for 5 min, and again the supernatant was aspirated using a 8-channel or 12-channel manifold. […] Samples of 250 μL/well were transferred to a 96-well U-bottom plate, and the FACS analysis was performed gating on total lymphocytes. Samples were analyzed using a BD Calibur™ or BD FACSCanto™ flow cytometer equipped with the BD High Throughput Sampler.

SMILES	IC50 [nM]
C=CC(=O)N1CCC[C@](C)(Nc2ncnc3[nH]ccc23)C1 [Example 70, (S)-1-(3-((7H-Pyrrolo[2,3-d]pyrimidin-4-yl)amino)-3-methylpiperidin-1-yl)prop-2-en-1-one]	5530
C=CC(=O)N(C)C1CN(c2cnc3[nH]cc(C(=O)NC(C)C)c3n2)C1 [Example 187, 2-{3-[acryloyl(methyl)amino]azetidin-1-yl}-N-(propan-2-yl)-5H-pyrrolo[2,3-b]pyrazine-7-carboxamide]	710
C=CC(=O)N1CC[C@@H]2CN(c3cnc4[nH]cc(C(=O)NC(C)C)c4n3)C[C@@H]21 [Example 170, 2-[(3aR,6aR)-1-acryloylhexahydropyrrolo[3,4-b]pyrrol-5(1H)-yl]-N-(propan-2-yl)-5H-pyrrolo[2,3-b]pyrazine-7-carboxamide]	1370
C=CC(=O)N1CCC(Oc2cnc3[nH]cc(-c4ccnc(C)c4)c3n2)CC1 [Example 220, 1-(4-{[7-(2-methylpyridin-4-yl)-5H-pyrrolo[2,3-b]pyrazin-2-yl]oxy}piperidin-1-yl)prop-2-en-1-one]	464
C=CC(=O)N1CCC[C@@H](Nc2ncnc3[nH]cc(-c4cccnc4)c23)C1 [Example 26, 1-[(3R)-3-{[5-(pyridin-3-yl)-7H-pyrrolo[2,3-d]pyrimidin-4-yl]amino}piperidin-1-yl]prop-2-en-1-one]	254

same assay, conditions: IL-15 stimulated, read-out: PBMC IL15-pSTAT5 IC50

SMILES	IC50 [nM]
C=CC(=O)N1CCC[C@@H](Nc2ncnc3[nH]cc(-c4cncc(F)c4)c23)C1 [Example 23, 1-[(3R)-3-{[5-(5-fluoropyridin-3-yl)-7H-pyrrolo[2,3-d]pyrimidin-4-yl]amino}piperidin-1-yl]prop-2-en-1-one]	188
C=CC(=O)N1CCC(Nc2cnc3[nH]cc(C(=O)NC(CC)C4(O)CCC4)c3n2)CC1 (stereo not shown) [Example 251b, 2-[(1-acryloylpiperidin-4-yl)amino]-N-[1-(1-hydroxycyclobutyl)propyl]-5H-pyrrolo[2,3-b]pyrazine-7-carboxamide]	1510
C=CC(=O)N1CCC(Nc2cnc3[nH]cc(C(=O)NCC4(O)CCC4)c3n2)CC1 [Example 231, 2-[(1-acryloylpiperidin-4-yl)amino]-N-[(1-hydroxycyclobutyl)methyl]-5H-pyrrolo[2,3-b]pyrazine-7-carboxamide]	3620
C=CC(=O)N1CCC(Nc2cnc3[nH]cc(C(=O)N[C@@H](C(C)C)[C@H](O)C(F)(F)F)c3n2)CC1 [Example 252, 2-[(1-acryloylpiperidin-4-yl)amino]-N-[(2S,3S)-1,1,1-trifluoro-2-hydroxy-4-methylpentan-3-yl]-5H-pyrrolo[2,3-b]pyrazine-7-carboxamide]	673
C=CC(=O)N1CCN(c2cnc3[nH]cc(C(=O)NC(C)C)c3n2)[C@@H](C)C1 [Example 297, 2-[(2S)-4-acryloyl-2-methylpiperazin-1-yl]-N-(propan-2-yl)-5H-pyrrolo[2,3-b]pyrazine-7-carboxamide]	752
C=CC(=O)N1CCC(Nc2cnc3[nH]cc(C(=O)N4CCC4)c3n2)CC1 [Example 284, 1-(4-{[7-(azetidin-1-ylcarbonyl)-5H-pyrrolo[2,3-b]pyrazin-2-yl]amino}piperidin-1-yl)prop-2-en-1-one]	2790
C=CC(=O)N1C[C@@H]2C(Nc3cnc4[nH]cc(C(=O)NC(C)C)c4n3)[C@@H]2C1 (stereo partly drawn) [Example 189, 2-{[(1R,5S,6s)-3-acryloyl-3-azabicyclo[3.1.0]hex-6-yl]amino}-N-(propan-2-yl)-5H-pyrrolo[2,3-b]pyrazine-7-carboxamide]	1740
C=CC(=O)N1CCC(Oc2cnc3[nH]cc(-c4ccnc(F)c4)c3n2)CC1 [Example 222, 1-(4-{[7-(2-fluoropyridin-4-yl)-5H-pyrrolo[2,3-b]pyrazin-2-yl]oxy}piperidin-1-yl)prop-2-en-1-one]	757
C=CC(=O)N1CCC[C@@H](Nc2ncnc3[nH]cc(-c4ccccc4O)c23)C1 [Example 25, 1-[(3R)-3-{[5-(2-hydroxyphenyl)-7H-pyrrolo[2,3-d]pyrimidin-4-yl]amino}piperidin-1-yl]prop-2-en-1-one]	84
C=CC(=O)N1CCC[C@@H](Nc2ncnc3[nH]cc(-c4cncc(OC)c4)c23)C1 [Example 24, 1-[(3R)-3-{[5-(5-methoxypyridin-3-yl)-7H-pyrrolo[2,3-d]pyrimidin-4-yl]amino}piperidin-1-yl]prop-2-en-1-one]	320
C=CC(=O)N1CCC(Nc2cnc3[nH]cc(C(=O)NCCCC#N)c3n2)CC1 [Example 242, 2-[(1-acryloylpiperidin-4-yl)amino]-N-(3-cyanopropyl)-5H-pyrrolo[2,3-b]pyrazine-7-carboxamide]	1100
C=CC(=O)N1CCC(Oc2cnc3[nH]cc(-c4ccc(C)nc4)c3n2)CC1 [Example 214, 1-(4-{[7-(6-methylpyridin-3-yl)-5H-pyrrolo[2,3-b]pyrazin-2-yl]oxy}piperidin-1-yl)prop-2-en-1-one]	1110
C=CC(=O)N1C[C@H](Nc2ncnc3[nH]ccc23)CC[C@@H]1C [Example 5, 1-((2S,5R)-5-((7H-pyrrolo[2,3-d]pyrimidin-4-yl)amino)-2-methylpiperidin-1-yl)prop-2-en-1-one]	51.7
C=CC(=O)N1CCC(Nc2cnc3[nH]cc(C(=O)N[C@@H]4CCC[C@H]4F)c3n2)CC1 [Example 237, 2-[(1-acryloylpiperidin-4-yl)amino]-N-[(1R,2R)-2-fluorocyclopentyl]-5H-pyrrolo[2,3-b]pyrazine-7-carboxamide]	80.1
C=CC(=O)N1CCN(c2cnc3[nH]cc(C(=O)NC(C)C)c3n2)[C@H](C)C1 [Example 307, 2-[(2R)-4-acryloyl-2-methylpiperazin-1-yl]-N-(propan-2-yl)-5H-pyrrolo[2,3-b]pyrazine-7-carboxamide]	457
C=CC(=O)N1C[C@H](Nc2ncnc3[nH]ccc23)C[C@@H](OC)C1 [Example 77, 1-[(3R,5R)-3-Methoxy-5-(7H-pyrrolo[2,3-d]pyrimidin-4-ylamino)piperidin-1-yl]prop-2-en-1-one]	3970
C=CC(=O)N1CCC(Nc2cnc3[nH]cc(C(=O)NCC4(O)CCC(F)(F)CC4)c3n2)CC1 [Example 252b, 2-[(1-acryloylpiperidin-4-yl)amino]-N-[(4,4-difluoro-1-hydroxycyclohexyl)methyl]-5H-pyrrolo[2,3-b]pyrazine-7-carboxamide]	2470
C=CC(=O)N1CCC(Oc2cnc3[nH]cc(-c4cncc(C#N)c4)c3n2)CC1 [Example 225, 5-{2-[(1-acryloylpiperidin-4-yl)oxy]-5H-pyrrolo[2,3-b]pyrazin-7-yl}pyridine-3-carbonitrile]	2910
C=CC(=O)N1CCC[C@@H](Nc2ncnc3[nH]cc(CCO)c23)C1 [Example 55, (R)-1-(3-((5-(2-Hydroxyethyl)-7H-pyrrolo[2,3-d]pyrimidin-4-yl)amino)piperidin-1-yl)prop-2-en-1-one]	430
C=CC(=O)N1CCC(Oc2cnc3[nH]cc(C(=O)NC(C)(C)C)c3n2)CC1 [Example 338, 2-((1-Acryloylpiperidin-4-yl)oxy)-N-(tert-butyl)-5H-pyrrolo[2,3-b]pyrazine-7-carboxamide]	480
C=CC(=O)N1CCC(Nc2cnc3[nH]cc(C(=O)NCC4(O)CCCC[C@@H]4F)c3n2)CC1 (stereo partly drawn) [Example 254, 2-[(1-acryloylpiperidin-4-yl)amino]-N-{[(2S)-2-fluoro-1-hydroxycyclohexyl]methyl}-5H-pyrrolo[2,3-b]pyrazine-7-carboxamide]	836
C=CC(=O)N1CCC[C@@H](Nc2ncnc3[nH]cc(CC#N)c23)C1 [Example 20, (R)-2-(4-((1-Acryloylpiperidin-3-yl)amino)-7H-pyrrolo[2,3-d]pyrimidin-5-yl)acetonitrile]	362
C=CC(=O)N1CCC[C@@H](Nc2ncnc3[nH]cc(-c4ccc(C(=O)NC(C)C)cc4)c23)C1 [Example 29, 4-(4-{[(3R)-1-acryloylpiperidin-3-yl]amino}-7H-pyrrolo[2,3-d]pyrimidin-5-yl)-N-(propan-2-yl)benzamide]	464
C=CC(=O)N1C[C@@H](C)N(c2cnc3[nH]cc(C(=O)NC(C)C)c3n2)[C@@H](C)C1 [Example 328, 2-[(2R,6S)-4-acryloyl-2,6-dimethylpiperazin-1-yl]-N-(propan-2-yl)-5H-pyrrolo[2,3-b]pyrazine-7-carboxamide]	891
C=CC(=O)N1CCC(Nc2cnc3[nH]cc(-c4cccc(C(=O)NC)c4)c3n2)CC1 [Example 204, 3-{2-[(1-acryloylpiperidin-4-yl)amino]-5H-pyrrolo[2,3-b]pyrazin-7-yl}-N-methylbenzamide]	855
C=CC(=O)N1CC[C@@H](Nc2cnc3[nH]cc(C(=O)NC(C)C)c3n2)[C@H](F)C1 [Example 291, 2-{[(3R,4R)-1-acryloyl-3-fluoropiperidin-4-yl]amino}-N-(propan-2-yl)-5H-pyrrolo[2,3-b]pyrazine-7-carboxamide]	168
